Legend:
[1] = molecular target: T1, Acetylcholinesterase (Homo sapiens, UniProt P22303); assay: Inhibition of acetylcholinesterase (unknown origin) assessed as reduction in formation of 5-thio-2-nitrobenzoate from acetylthiocholine iodide at 5 ug/ml preincubated for 15 mins followed by substrate addition measured after 30 mins by Ellman's method
[2] = molecular target: T1, Acetylcholinesterase; assay: Inhibition of acetylcholinesterase (unknown origin) assessed as reduction in formation of 5-thio-2-nitrobenzoate from acetylthiocholine iodide preincubated for 15 mins followed by substrate addition measured after 30 mins by Ellman's method
[3] = Cytotoxicity against human SH-SY5Y cells assessed as reduction in cell viability at 0.2 to 40 uM measured after 24 hrs by MTT assay; assay type: toxicity, cell-based

T1 sequence (P22303 whole entry): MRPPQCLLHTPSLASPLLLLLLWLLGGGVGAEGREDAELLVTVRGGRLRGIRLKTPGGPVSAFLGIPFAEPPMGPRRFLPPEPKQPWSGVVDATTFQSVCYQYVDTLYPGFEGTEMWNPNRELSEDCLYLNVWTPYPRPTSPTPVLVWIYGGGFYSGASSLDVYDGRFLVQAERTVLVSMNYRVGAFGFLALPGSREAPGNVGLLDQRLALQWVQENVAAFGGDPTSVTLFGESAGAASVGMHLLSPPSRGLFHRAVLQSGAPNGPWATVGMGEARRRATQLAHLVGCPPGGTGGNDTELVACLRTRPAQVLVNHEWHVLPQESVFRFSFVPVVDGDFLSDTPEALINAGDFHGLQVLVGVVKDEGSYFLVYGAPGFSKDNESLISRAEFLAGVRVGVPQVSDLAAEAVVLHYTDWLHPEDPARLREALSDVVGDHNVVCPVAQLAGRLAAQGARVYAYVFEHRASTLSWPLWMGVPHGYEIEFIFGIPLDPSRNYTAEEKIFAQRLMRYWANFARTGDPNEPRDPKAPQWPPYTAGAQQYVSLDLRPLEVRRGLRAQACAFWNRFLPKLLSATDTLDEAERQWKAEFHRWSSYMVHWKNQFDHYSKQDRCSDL

Row | SMILES | inhibition [1] [%] | IC50 [2] [µM] | Activity [3]
1 | Brc1ccc(C=C2CNCC3=C2N=C2SC=C(c4ccccc4)N2C3c2ccc(Br)cc2)cc1 (configuration not stated) | 66.7 | 1.48 | –
2 | Cc1ccc(C2=CSC3=NC4=C(CNCC4=Cc4ccc(Cl)cc4)C(c4ccc(Cl)cc4)N23)cc1 (configuration not stated) | 74.7 | 1.09 | Non-Toxic
3 | Cc1cccc(CN2C/C(=C\c3ccccc3)C(=O)/C(=C/c3ccccc3)C2)c1 | 63.1 | 3.18 | –
4 | Brc1ccc(C2=CSC3=NC4=C(CNCC4=Cc4ccccc4)C(c4ccccc4)N23)cc1 (configuration not stated) | 48.7 | – | –
5 | Cc1ccc(/C=C2\CN(Cc3ccc4ccccc4c3)C/C(=C\c3ccc(C)cc3)C2=O)cc1 | 72.6 | 1.59 | –
6 | Cc1ccc(C=C2CNCC3=C2N=C2SC=C(c4ccccc4)N2C3c2ccc(C)cc2)cc1 (configuration not stated) | 45.7 | – | –
7 | O=C1/C(=C/c2ccccc2)CN(Cc2ccc3ccccc3c2)C/C1=C\c1ccccc1 | 67.9 | 1.93 | –
8 | Cc1ccc(C=C2CNCC3=C2N=C2SC=C(c4ccc(C)cc4)N2C3c2ccc(C)cc2)cc1 (configuration not stated) | 60.4 | 1.8 | –
9 | Brc1ccc(C=C2CNCC3=C2N=C2SC=C(c4ccc(Br)cc4)N2C3c2ccc(Br)cc2)cc1 (configuration not stated) | 48.3 | – | –
10 | Clc1ccc(C=C2CNCC3=C2N=C2SC=C(c4ccc5ccccc5c4)N2C3c2ccc(Cl)cc2)cc1 (configuration not stated) | 62.8 | 1.35 | –
11 | Cc1ccc(/C=C2\CN(Cc3cccc(C)c3)C/C(=C\c3ccc(C)cc3)C2=O)cc1 | 59.8 | 3.22 | –
12 | Cc1ccc(C=C2CNCC3=C2N=C2SC=C(c4ccc5ccccc5c4)N2C3c2ccc(C)cc2)cc1 (configuration not stated) | 69.6 | 0.98 | Non-Toxic
13 | Clc1ccc(C=C2CNCC3=C2N=C2SC=C(c4ccc(Br)cc4)N2C3c2ccc(Cl)cc2)cc1 (configuration not stated) | 41.6 | – | –
14 | Clc1ccc(C=C2CNCC3=C2N=C2SC=C(c4ccccc4)N2C3c2ccc(Cl)cc2)cc1 (configuration not stated) | 41.6 | – | –
15 | Brc1ccc(C=C2CNCC3=C2N=C2SC=C(c4ccc5ccccc5c4)N2C3c2ccc(Br)cc2)cc1 (configuration not stated) | 65.7 | 0.73 | Non-Toxic
16 | Cc1ccc(C2=CSC3=NC4=C(CNCC4=Cc4ccccc4)C(c4ccccc4)N23)cc1 (configuration not stated) | 42.1 | – | –
17 | Cc1cccc(CN2C/C(=C\c3ccc(Br)cc3)C(=O)/C(=C/c3ccc(Br)cc3)C2)c1 | 45.7 | – | –
18 | C(=C1CNCC2=C1N=C1SC=C(c3ccccc3)N1C2c1ccccc1)c1ccccc1 (configuration not stated) | 48.6 | – | –
19 | O=C1/C(=C/c2ccc(Cl)cc2)CN(Cc2ccc3ccccc3c2)C/C1=C\c1ccc(Cl)cc1 | 42.4 | – | –
20 | O=C1/C(=C/c2ccc(Br)cc2)CN(Cc2ccc3ccccc3c2)C/C1=C\c1ccc(Br)cc1 | 67.2 | 0.83 | Non-Toxic
21 | C(=C1CNCC2=C1N=C1SC=C(c3ccc4ccccc4c3)N1C2c1ccccc1)c1ccccc1 (configuration not stated) | 41.8 | – | –
22 | Cc1ccc(C=C2CNCC3=C2N=C2SC=C(c4ccc(Br)cc4)N2C3c2ccc(C)cc2)cc1 (configuration not stated) | 64.6 | 2.27 | –
23 | Cc1cccc(CN2C/C(=C\c3ccc(Cl)cc3)C(=O)/C(=C/c3ccc(Cl)cc3)C2)c1 | 41.6 | – | –
24 | Cc1ccc(C2=CSC3=NC4=C(CNCC4=Cc4ccc(Br)cc4)C(c4ccc(Br)cc4)N23)cc1 (configuration not stated) | 68.3 | 1.01 | Non-Toxic
